In patent publication US20180135134A1, “TARGETED SELECTION OF PATIENTS FOR TREATMENT WITH CORTISTATIN DERIVATIVES” (President and Fellows of Harvard College, priority 2015, published 2018):

How the values were obtained:
[1] = tested on: RUNX1 target gene signatures; assay: Gene expression and gene set enrichment analysis (GSEA) in MOLM-14 cells; type: cell-based, human; details: 3 h 25 nM CA
Text: Kasumi-1 AML cells contain the RUNX1-RUNX1T1 fusion. A gene set was obtained that measured the genes in Kasumi-1 cells that increase in expression upon knockdown of RUNX1-RUNX1T1 (Ben-Ami, O. et al. Cell Reports 4, 1131-1143 (2013)). Using gene set enrichment analysis (Subramanian, A. et. al. Proc. Natl Acad. Sci. USA 102, 15545-15550 (2005)), this gene set, together with the Broad Molecular Signatures database (C2) was compared to genes differentially expressed in MOLM-14 cells upon treatment with 25 nM cortistatin A for 3 hrs (FIG. 2).
Leukemia cells were plated (12-well) in triplicate at 500,000-800,000 cells per ml and incubated in the presence of vehicle (0.1% DMSO) or CA (25 nM 3 h for K562, MOLM-14 and MV4;11; 10 nM 24 h for MOLM-14; 25 nM 4 h for SET-2, n=3 for each cell line). Cells were then washed twice with cold PBS, and snap frozen. RNA was isolated (RNeasy Plus Microkit, Qiagen or TRIzol, Life Technologies), processed, and, for K562, MOLM-14 and MV4;11, hybridized to the Human U133 Plus 2.0 microarray (Affymetrix). Microarrays were processed with Bioconductor packages affyQCReport for quality control and affy for background correction, summarization, and normalization using rma. Probe sets present in at least 1 sample (based on affy mas5call) and for which the interquartile range was >log2(1.2) were retained for further analysis. The limma Bioconductor package was used for differential expression analysis of CA-treated versus DMSO control samples (Benjamini-Hochberg adjusted P<0.05). SET-2 and HCT 116 gene expression was measured by RNA-seq. SET-2 RNA-seq libraries were prepared and processed using the Ion Torrent workflow. Reads were aligned in two passes, first with rnaStar (v.2.3.0e) then with BWA (v.0.7.5a) for remaining unmapped reads, both using default parameters. Mapped reads were merged and counted using HTSeq (v.0.5.3p3) with -s yes -m intersection-strict. The Bioconductor package DESeq was used for DE analysis (FDR<0.05 and twofold change) and normalization. HCT116 cells were grown to approximately 80% confluence and were treated with either 100 nM CA or DMSO for 3 h (n=3). Cells were then washed twice with cold PBS and scraped into TRIzol reagent (Life Technologies). After collecting the RNA, it was further purified using an RNeasy mini kit (Qiagen) with an on-column DNase I digestion. Libraries for Illumina sequencing were generated via the Illumina TruSEQ stranded mRNA prep kit. Samples were run in a single lane on an Illumina HiSEQ 2000 sequencer with a single read flow cell using 1×50-bp reads and a 6-cycle index read. Reads were mapped to the hgl9 reference genome using Tophat2 v.2.0.6 with custom settings including the setting of—library-type fr—firstrand to appropriately account for the stranded nature of the protocol. HTSeq v.0.6.1 was used to obtain read counts over annotated genes and differentially expressed genes were called by DESeq v.1.10.1 with a padj value of less than 0.01. Counts were normalized for GSEA using the limma voom function. Expression data for the I-BET151 comparison were downloaded from ArrayExpress (https://www.ebi.ac.uk/arrayexpress, accession E-MTAB-774) and processed files used as is. Gene lists were submitted to the DAVID web server (http://david.abcc.ncifcrf.gov) for functional annotation. GSEA version 2.09 was carried out using signal-to-noise on natural values as the metric. Signatures included curated gene sets (C2, v.3) downloaded from the Broad's MSigDB as well as signatures curated from in-house and published data sets.

[2] = tested on: RUNX1 target gene signatures; assay: Gene expression and gene set enrichment analysis (GSEA) in SET-2 cells; type: cell-based, human; details: 4 h 25 nM CA
Method: Leukemia cells were plated (12-well) in triplicate at 500,000-800,000 cells per ml and incubated in the presence of vehicle (0.1% DMSO) or CA (25 nM 3 h for K562, MOLM-14 and MV4;11; 10 nM 24 h for MOLM-14; 25 nM 4 h for SET-2, n=3 for each cell line). Cells were then washed twice with cold PBS, and snap frozen. RNA was isolated (RNeasy Plus Microkit, Qiagen or TRIzol, Life Technologies), processed, and, for K562, MOLM-14 and MV4;11, hybridized to the Human U133 Plus 2.0 microarray (Affymetrix). Microarrays were processed with Bioconductor packages affyQCReport for quality control and affy for background correction, summarization, and normalization using rma. […] SET-2 and HCT 116 gene expression was measured by RNA-seq. […] Reads were aligned in two passes, first with rnaStar (v.2.3.0e) then with BWA (v.0.7.5a) for remaining unmapped reads, both using default parameters. Mapped reads were merged and counted using HTSeq (v.0.5.3p3) with -s yes -m intersection-strict. […] Samples were run in a single lane on an Illumina HiSEQ 2000 sequencer with a single read flow cell using 1×50-bp reads and a 6-cycle index read. Reads were mapped to the hgl9 reference genome using Tophat2 v.2.0.6 with custom settings including the setting of—library-type fr—firstrand to appropriately account for the stranded nature of the protocol. […]

[3] = tested on: UKE-1; assay: Synergy assay with ruxolitinib (Chou-Talalay), UKE-1; type: cell-based, human; details: combination of cortistatin A with JAK1/2 inhibitor ruxolitinib, FIG. 5
Method: SET-2 and UKE-1 cells were co-treated with constant ratios of ruxolitinib to CA, 1 to 1 or 10 to 1, in a 96-well growth assay format with a range of 2-fold dose dilutions of compounds. SET-2 and UKE-1 cells were also treated with ruxolitinib alone or CA alone in a 2-fold dilution series. The Chou-Talalay combination index values at 50% growth inhibition (Fa=0.5) were determined using CalcuSyn software (see Chou, T. C. Cancer Res. 2010 Jan. 15; 70(2):440-6) (FIG. 5).

[4] = tested on: MCF-7; assay: Soft agar growth assay (Alamar Blue); details: Breast cancer, ER-alpha positive, 100 nM cortistatin A
Method: (§1) For the 62 cell lines 96 well suspension cell culture plates were prepared. 100 μL of the soft agar bottom layer (0.6% final concentration in complete medium) was poured and left to solidify. 50 μL of the soft agar top layer (0.4% final concentration) containing the corresponding cells and cell number were then added on top, solidified and incubated at 37° C., 10% CO2. After the soft agar had solidified, the test items were added at indicated final concentrations into the inner wells of the plate. Subsequently, the assay was incubated in cell culture incubators for 8 to 14 days. Finally, the assay was developed using Alamar Blue and upon 1-5 h of incubation at 37° C. fluorescence intensity was determined (excitation: 560 nm; emission: 590 nm). As low control, cells were treated with 1E-05M Staurosporine (6fold values). As high control, cells were treated with 0.1% DMSO (solvent control, 6 fold values).
(§2) Raw data were converted into percent soft agar growth relative to high controls (solvent 0.1% DMSO) and low controls (1E-05M Staurosporine), which were set to 100% and 0%, respectively.

[5] = tested on: SK-N-SH; assay: Soft agar growth assay (Alamar Blue); details: Neuroblastoma, 100 nM cortistatin A
Method: as §1, §2

[6] = tested on: SK-ES-1; assay: Soft agar growth assay (Alamar Blue); details: EWS-FLI1, 100 nM cortistatin A
Method: as §1, §2

[7] = tested on: JeKo-1; assay: Cellular proliferation assay (CellTiter-Glo); details: Homo sapiens
Method: (§3) All suspension cells were plated (96-well) in triplicate at 5,000-30,000 cells per well for testing (n=3). Viable cell number was estimated after 3, 7 and 10 days by counting viable cells from one vehicle well, generating a cell dilution series, transferring 20 ml per well in duplicate to a 384-well plate, and performing a linear regression to CellTiter-Glo (Promega) response (SPECTRAmax M3, Molecular Devices). Cells from all wells were also fourfold diluted in media and transferred in duplicate for CellTiter-Glo measurement. On days 3 and 7, an equal volume for all wells was split-back with fresh media and compound, such that the resulting cell density for the vehicle well matched the initial seeding density. For days 7 and 10, estimated cell number represents the split-adjusted theoretical cell number. HCT116 were plated (96-well) in triplicate at 250 cells per well. Cells were incubated in the presence of vehicle, 1 μM paclitaxel, or compound. On day 7, CellTiter-Blue (Promega) response was measured and values were normalized to vehicle (100% growth) and paclitaxel (0% growth). For growth assays with inhibitors, n=3 for each concentration with two independent experiments.

[8] = tested on: MOLM-14; assay: Cellular proliferation assay (CellTiter-Glo); details: Homo sapiens
Method: (§4) All suspension cells were plated (96-well) in triplicate at 5,000-30,000 cells per well for testing (n=3). Viable cell number was estimated after 3, 7 and 10 days by counting viable cells from one vehicle well, generating a cell dilution series, transferring 20 ml per well in duplicate to a 384-well plate, and performing a linear regression to CellTiter-Glo (Promega) response (SPECTRAmax M3, Molecular Devices). Cells from all wells were also fourfold diluted in media and transferred in duplicate for CellTiter-Glo measurement. On days 3 and 7, an equal volume for all wells was split-back with fresh media and compound, such that the resulting cell density for the vehicle well matched the initial seeding density. For days 7 and 10, estimated cell number represents the split-adjusted theoretical cell number. […] For growth assays with inhibitors, n=3 for each concentration with two independent experiments.

[9] = tested on: Kasumi-1; assay: Cellular proliferation assay (CellTiter-Glo); details: Homo sapiens
Method: as §4

[10] = tested on: NB4; assay: Cellular proliferation assay (CellTiter-Glo); details: Homo sapiens, NB-4
Method: as §3

[11] = tested on: HEL; assay: Cellular proliferation assay (CellTiter-Glo); details: Homo sapiens
Method: as §4

[12] = tested on: MKPL-1; assay: Cellular proliferation assay (CellTiter-Glo); details: Homo sapiens, 240 h
Method: as §4

[13] = tested on: HCT116; assay: Cellular proliferation assay (CellTiter-Blue, day 7); details: Homo sapiens, HCT-116
Method: as §3

[14] = tested on: megakaryocytic and erythroleukemia cell lines; assay: Comparison of sensitivity of megakaryocytic and erythroleukemia cell lines; details: K562 and HEL compared to MEG-01 and SET-2 (BCR-Abl or JAK2V617F)

CN(C)[C@H]1C[C@@]23CC[C@@]4(O2)C(=CC[C@]2(C)[C@@H](c5ccc6ccncc6c5)CC[C@H]24)C=C3[C@@H](O)[C@@H]1O [Cortistatin A, cortistatin A]
NES ([1]; signature: Downregulated by RUNX1-RUNX1T1 in CD34+ cord blood cells): 2.50
NES ([1]; signature: Downregulated by RUNX1 knockdown in Kasumi-1 cells): 2.21
NES ([1]; signature: Downregulated by RUNX1 knowndown in Jurkat cells): 2.00
NES ([1]; signature: Upregulated by C/EBPα in Burkitt lymphoma cells): 2.56
NES ([1]; signature: Upregulated by C/EBPα in K562 cells): 2.22
NES ([1]; signature: Upregulated by C/EBPα in KCL22 cells): 2.22
NES ([1]; signature: Upregulated by RUNX1-RUNX1T1 knockdown in Kasumi-1 cells): 2.78
NES ([2]; signature: GATA1/GATA2/RunX1/FLI1/SCL Binding Sites in Mks): 2.03
NES ([2]; signature: GATA1/SCL Binding Sites in Mks): 2.27
combination index (synergy) for inhibition of proliferation [3]: synergizes
% growth rel. to vehicle [4]: 49%
% growth rel. to vehicle [5]: 29%
% growth rel. to vehicle [6]: 36%
GI50 [7]: < 1 nM
GI50 ([8]; MOLM-14): 5 nM
GI50 ([8]; MOLM-14, 240 h): 5 nM
GI50 [9]: 95 nM
GI50 [10]: > 1000 nM
GI50 [11]: > 1000 nM
GI50 ([11]; 240 h): > 1000 nM
GI50 [12]: 1 nM
GI50 [13]: > 1000 nM
difference in sensitivity between megakaryocytic and erythroleukemia cell lines with the same mutations [14]: more than 100 fold
